Measurements reported in the supplement of paper PMC10307832.

compound: O=C(/C=C/c1ccccc1)NC(NC(=S)Nc1cccc2cccnc12)C(Cl)(Cl)Cl [Salubrinal] + CC(=O)Nc1cccc(-n2c(=O)n(C3CC3)c(=O)c3c(Nc4ccc(I)cc4F)n(C)c(=O)c(C)c32)c1 [Trametinib] (partner 0.02 µM); test: relative viability (nuclei count vs DMSO), 5 days (fraction); higher = more cells survive; settings: first compound 8 µM
In short: (§1)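 For relative viability, nuclei counts in treated wells were divided by those in vehicle wells. Lung cancer cell lines had been pin-tool dosed in 1536-well plates the day after seeding and cultured for 5 days, then fixed and stained in one step (final 0.05% Triton X-100, 1% formaldehyde, 1 ug/ml Hoechst) and imaged at 4×. Doses were one drug alone or a fixed anchor-drug dose plus five library-drug doses (not always all listed) in √10 steps, and values are duplicate-plate medians.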

Row | Cell Line | relative viability
1 | SW 900 | 1
2 | HCC-78 | 0.686
3 | NCI-H1648 | 0.325

compound: O=C(/C=C/c1ccccc1)NC(NC(=S)Nc1cccc2cccnc12)C(Cl)(Cl)Cl [Salubrinal] + CCNC(=O)c1noc(-c2cc(C(C)C)c(O)cc2O)c1-c1ccc(CN2CCOCC2)cc1 [Luminespib] (partner 0.01 µM); test: as above; settings: first compound 0.08 µM
In short: as §1

Row | Cell Line | relative viability
4 | NCI-H522 | 1.13
5 | NCI-H2342 | 0.779
6 | NCI-H727 | 0.407
7 | NCI-H1650 | 0.212
8 | NCI-H1993 | 0.899
9 | SW 1573 | 0.211
10 | NCI-H838 | 0.264
11 | LCLC-103H | 1.11
12 | NCI-H520 | 0.255
13 | NCI-H2126 | 0.958
14 | EMC-BAC-2 | 1.26
15 | NCI-H2085 | 0.473
16 | NCI-H1666 | 0.984
17 | NCI-H596 | 0.971
18 | LK-2 | 0.219
19 | NCI-H2087 | 0.151

Row | Cell Line | relative viability
20 | NCI-H358 | 0.277
21 | NCI-H2170 | 0.854
22 | H3255 | 0.939
23 | COR-L23 | 0.933
24 | COR-L 105 | 0.7
25 | LOU-NH91 | 0.304
26 | ChaGo-K-1 | 0.633
27 | NCI-H1793 | 0.231
28 | NCI-H2405 | 0.591
29 | HOP-62 | 0.936
30 | HCC-44 | 1.32
31 | SW 900 | 0.173
32 | NCI-H1623 | 0.465
33 | NCI-H1563 | 0.572
34 | ABC-1 | 0.559

same assay, conditions: first compound 0.253 µM

Row | Cell Line | relative viability
35 | NCI-H522 | 0.97
36 | NCI-H2342 | 0.662
37 | NCI-H727 | 0.337
38 | NCI-H1650 | 0.213
39 | NCI-H1993 | 0.681
40 | SW 1573 | 0.26
41 | NCI-H838 | 0.258
42 | LCLC-103H | 0.82
43 | NCI-H520 | 0.218
44 | NCI-H2126 | 0.833
45 | EMC-BAC-2 | 0.835
46 | NCI-H2085 | 0.47
47 | NCI-H1666 | 0.903
48 | NCI-H596 | 0.775
49 | LK-2 | 0.183
50 | NCI-H2087 | 0.164
51 | NCI-H2170 | 0.686
52 | H3255 | 0.948
53 | COR-L23 | 0.612
54 | COR-L 105 | 0.699
55 | LOU-NH91 | 0.381
56 | ChaGo-K-1 | 0.581
57 | NCI-H1793 | 0.168
58 | NCI-H2405 | 0.865
59 | HOP-62 | 0.676
60 | HCC-44 | 1.08
61 | NCI-H1623 | 0.648
62 | NCI-H1563 | 0.501

same assay, conditions: first compound 0.8 µM

Row | Cell Line | relative viability
63 | NCI-H522 | 1.13
64 | NCI-H2342 | 0.714
65 | NCI-H727 | 0.337
66 | NCI-H1650 | 0.194
67 | NCI-H1993 | 0.987
68 | SW 1573 | 0.206
69 | NCI-H838 | 0.285
70 | LCLC-103H | 1.02
71 | NCI-H520 | 0.279
72 | NCI-H2126 | 1.03
73 | EMC-BAC-2 | 1.28
74 | NCI-H2085 | 0.562
75 | NCI-H1666 | 0.95
76 | NCI-H596 | 0.972
77 | LK-2 | 0.214
78 | NCI-H2087 | 0.16
